# Assays:
# coxsackie B4 virus = assay: In vitro CPE assay in mammalian cell culture, B4; type: cell-based; details: Enterovirus B, viral cytopathic effect in mammalian cell culture, read-out: B4 inhibition capacity (IC50)
# PI3Kβ = PI3Kβ (Homo sapiens, UniProt P42338); assay: PI3 kinase inhibition HTRF assay; type: biochemical; details: * no inhibition at the highest tested concentration 1 μM
# Procedure: (§1) Phosphatidyl inositol kinase inhibition assay Inhibition of PI4 kinases was studied using the ADP-Glo™ Kinase Assay which is a luminescent kinase assay that measures ADP formed from a kinase reaction, wherein ADP is converted into ATP, which is converted into light by Ultra-Glo™ Luciferase. The assay is performed in two steps; first, after the kinase reaction, an equal volume of ADP-Glo™ Reagent is added to terminate the kinase reaction and deplete the remaining ATP. In the second step, the Kinase Detection Reagent is added, which simultaneously converts ADP to ATP and allows the newly synthesized ATP to be measured using a coupled luciferase/luciferin reaction. The luminescent signal produced is proportional to the activity of the kinase. Inhibition of PI3 kinases was studied using the HTRF (homogeneous time-resolved fluorescence) assay, which is a universal method for identifying and characterizing the phosphotransferase activity induced by any ATP/ADP dependent target. The formation of ADP was detected by a specific monoclonal antibody labeled with Eu^3+ cryptate, and directly correlated with the amount of phosphorylated substrate.
# PI3Kα = PI3Kα (Homo sapiens, UniProt P42336); assay: PI3 kinase inhibition HTRF assay; type: biochemical; details: * no inhibition at the highest tested concentration 1 μM
# Procedure: as §1
# coxsackie B3 virus = assay: In vitro CPE assay in mammalian cell culture, B3; type: cell-based; details: Enterovirus B, viral cytopathic effect in mammalian cell culture, read-out: B3 inhibition capacity (IC50)
# in vitro = in vitro ADME; details: plasma, pH 7.4
# Procedure: Plasma protein binding study was performed by using a Rapid Equilibrium Dialysis (RED) device containing dialysis membrane with a molecular weight cut-off of 8,000 Daltons. Each dialysis insert contains two chambers. The red chamber was for the plasma while the white chamber was for the buffer. The human and rat plasma (pH adjusted to 7.40) samples of test items and reference items (Warfarin and Propranolol) were prepared at a required test concentration of 5 μM using 5 mM DMSO stocks (final DMSO concentration was 0.1%). 300 μL of plasma sample was added into the sample chamber. 500 μL of buffer was added into the buffer chamber. After sealing the RED device with an adhesive film, incubation was done at 37° C. with shaking at 300 rpm for 4 h. Following incubation, an aliquot of 50 μL was removed from each well (plasma and buffer side) and diluted with equal volume of opposite matrix to nullify the matrix effect. The specimens were subjected to sample extraction in presence of internal standard by liquid-liquid extraction/protein precipitation method. After extraction, the samples were transferred into labeled auto sampler vials and submitted to LC-MS/MS analysis.
# [1] = Metabolic stability in rat liver microsomes; type: in vitro ADME; details: 5 μM test item, 0.125 mg/mL microsomal protein
# Procedure: (§2) Metabolic stability in human and rat liver microsomesMetabolic stability was studied using human (HLM) or rat (RLM) liver microsomes. The final composition of the assay included 5 μM of test item and reference item (Diclofenac or Imipramine) prepared from DMSO stock, so that the final concentration of DMSO was 0.1%, 0.125 mg/mL microsomal protein and cofactors (5.0 mM G-6-P, 0.06 U/mL G-6-PDH, 2.0 mM MgCl2, 1.0 mM NADP^+). Test and reference items were incubated with human or rat liver microsomes with or without cofactors. The reaction mixture (100 μL) was removed at specified time periods and the reaction was stopped by addition of stop solution. The samples were extracted in presence of internal standard and were analyzed using LC-MS/MS. The percent of the test/reference item remaining after a specified incubation period was calculated with respect to the peak area ratio at time 0 min.
# [2] = Metabolic stability in human liver microsomes; type: in vitro ADME; details: for Remaining after 1 h, HLM: human liver microsomes, 5 μM test item, 0.125 mg/mL microsomal protein; for half-life at 5 μM: human, microsomes
# Procedure: as §2
# Enterovirus 68 = assay: In vitro CPE assay in mammalian cell culture, EV68; type: cell-based; details: Enterovirus D, viral cytopathic effect in mammalian cell culture, read-out: EV68 inhibition capacity (IC50)
# PI4KIIIβ = PI4KIIIβ (Homo sapiens, UniProt Q9UBF8); assay: Phosphatidyl inositol kinase inhibition assay (ADP-Glo Kinase Assay); type: biochemical
# Procedure: as §1
# PI4KIIIα = PI4KIIIα (Homo sapiens, UniProt P42356); assay: as above; type: biochemical; details: * no inhibition at the highest tested concentration 1 μM
# Procedure: as §1
# Enterovirus 6 = assay: In vitro CPE assay in mammalian cell culture, EV6; type: cell-based; details: viral cytopathic effect in mammalian cell culture, read-out: EV6 inhibition capacity (IC50)
# coxsackie B2 virus = assay: In vitro CPE assay in mammalian cell culture, B2; type: cell-based; details: viral cytopathic effect in mammalian cell culture, read-out: B2 inhibition capacity (IC50)
# in vivo = assay: in vivo; set-up: species or system Sprague Dawley rats; details: male, Sprague Dawley, rat, po, 50 mg/kg
# Procedure: Overnight fasted animals were administered with the test compounds in recommended vehicle 0.4% (v/v) Tween 80+2% (v/v) Glycerol and 15% w/v HPBCD by oral route with a dose of 50 mg/kg body weight at dose volume of 10 mL/kg bw. Under mild isoflurane anesthesia, blood samples were collected into pre-labeled tubes containing anticoagulant (K2EDTA—2 mg/mL blood) during the next 24 hours post dose. Collected blood samples were centrifuged at 4000 rpm, 4° C. for 10 minutes and plasma was separated and stored at −80° C. until analysis.
# coxsackie B5 virus = assay: In vitro CPE assay in mammalian cell culture, B5; type: cell-based; details: viral cytopathic effect in mammalian cell culture, read-out: B5 inhibition capacity (IC50)
# polio virus Sabin 1 = assay: organism not typed; type: cell-based; details: read-out: Polio 1 inhibition capacity (IC50)
# Enterovirus 30 = assay: In vitro CPE assay in mammalian cell culture, EV30; type: cell-based; details: viral cytopathic effect in mammalian cell culture, read-out: EV30 inhibition capacity (IC50)
# coxsackie B1 virus = assay: In vitro CPE assay in mammalian cell culture, B1; type: cell-based; details: viral cytopathic effect in mammalian cell culture, read-out: B1 inhibition capacity (IC50)
# Enterovirus 71 = assay: In vitro CPE assay in mammalian cell culture, EV71; type: cell-based; details: Enterovirus A, viral cytopathic effect in mammalian cell culture, read-out: EV71 inhibition capacity (IC50)
# Chain of PI4KIIIα (P42356 whole entry): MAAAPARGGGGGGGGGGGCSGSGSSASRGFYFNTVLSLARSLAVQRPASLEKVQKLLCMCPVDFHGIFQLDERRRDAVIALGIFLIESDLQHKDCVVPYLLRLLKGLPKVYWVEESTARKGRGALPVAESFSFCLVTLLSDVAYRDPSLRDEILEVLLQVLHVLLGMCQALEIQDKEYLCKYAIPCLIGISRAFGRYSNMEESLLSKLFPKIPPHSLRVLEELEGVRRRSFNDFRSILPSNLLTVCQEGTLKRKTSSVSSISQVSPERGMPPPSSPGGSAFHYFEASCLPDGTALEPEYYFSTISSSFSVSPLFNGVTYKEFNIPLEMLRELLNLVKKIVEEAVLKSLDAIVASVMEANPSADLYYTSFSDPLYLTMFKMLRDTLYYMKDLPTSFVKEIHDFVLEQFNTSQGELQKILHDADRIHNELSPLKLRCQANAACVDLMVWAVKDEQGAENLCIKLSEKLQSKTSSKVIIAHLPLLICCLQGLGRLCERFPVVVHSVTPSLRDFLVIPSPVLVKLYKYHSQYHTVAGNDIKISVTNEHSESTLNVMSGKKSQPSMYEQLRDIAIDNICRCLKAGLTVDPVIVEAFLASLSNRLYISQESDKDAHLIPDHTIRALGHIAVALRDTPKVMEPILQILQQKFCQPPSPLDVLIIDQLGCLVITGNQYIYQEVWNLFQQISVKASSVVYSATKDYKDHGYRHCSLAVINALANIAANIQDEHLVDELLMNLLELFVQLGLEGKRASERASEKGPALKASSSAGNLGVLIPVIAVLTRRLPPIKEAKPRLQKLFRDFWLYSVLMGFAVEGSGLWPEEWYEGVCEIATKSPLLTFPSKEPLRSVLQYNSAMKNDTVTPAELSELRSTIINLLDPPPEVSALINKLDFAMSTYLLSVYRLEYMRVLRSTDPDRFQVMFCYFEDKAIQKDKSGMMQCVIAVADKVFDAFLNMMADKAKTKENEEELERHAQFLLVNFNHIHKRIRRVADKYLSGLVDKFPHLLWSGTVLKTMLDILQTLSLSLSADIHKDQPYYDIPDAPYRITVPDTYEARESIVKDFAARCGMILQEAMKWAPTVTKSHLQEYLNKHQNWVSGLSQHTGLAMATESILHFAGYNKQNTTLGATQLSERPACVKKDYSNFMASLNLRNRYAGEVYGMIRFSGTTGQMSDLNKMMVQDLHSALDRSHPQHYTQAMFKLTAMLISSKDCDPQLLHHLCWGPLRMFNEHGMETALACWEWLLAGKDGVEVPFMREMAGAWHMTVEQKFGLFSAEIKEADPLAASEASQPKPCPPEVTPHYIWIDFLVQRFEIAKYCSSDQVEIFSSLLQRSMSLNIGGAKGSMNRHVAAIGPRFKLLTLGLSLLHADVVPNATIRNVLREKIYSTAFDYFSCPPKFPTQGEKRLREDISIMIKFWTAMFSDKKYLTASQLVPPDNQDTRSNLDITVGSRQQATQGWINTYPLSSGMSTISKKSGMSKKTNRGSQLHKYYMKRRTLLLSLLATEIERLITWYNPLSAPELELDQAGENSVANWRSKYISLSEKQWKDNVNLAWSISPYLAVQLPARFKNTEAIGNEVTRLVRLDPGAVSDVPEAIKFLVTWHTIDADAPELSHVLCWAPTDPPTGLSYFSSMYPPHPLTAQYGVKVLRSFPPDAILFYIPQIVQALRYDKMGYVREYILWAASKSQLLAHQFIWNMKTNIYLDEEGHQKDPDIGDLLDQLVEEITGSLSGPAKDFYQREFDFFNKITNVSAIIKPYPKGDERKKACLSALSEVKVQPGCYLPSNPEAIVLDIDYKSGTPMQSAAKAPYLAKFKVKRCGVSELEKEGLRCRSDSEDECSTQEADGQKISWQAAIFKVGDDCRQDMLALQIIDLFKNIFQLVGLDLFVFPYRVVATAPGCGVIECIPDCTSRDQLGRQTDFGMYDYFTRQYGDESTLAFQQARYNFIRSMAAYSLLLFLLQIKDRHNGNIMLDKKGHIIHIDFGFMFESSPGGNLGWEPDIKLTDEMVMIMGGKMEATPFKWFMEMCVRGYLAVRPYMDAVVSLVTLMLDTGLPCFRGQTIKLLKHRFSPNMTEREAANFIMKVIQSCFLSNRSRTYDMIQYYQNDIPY
# Chain of PI3Kα (P42336 whole entry, species assumed): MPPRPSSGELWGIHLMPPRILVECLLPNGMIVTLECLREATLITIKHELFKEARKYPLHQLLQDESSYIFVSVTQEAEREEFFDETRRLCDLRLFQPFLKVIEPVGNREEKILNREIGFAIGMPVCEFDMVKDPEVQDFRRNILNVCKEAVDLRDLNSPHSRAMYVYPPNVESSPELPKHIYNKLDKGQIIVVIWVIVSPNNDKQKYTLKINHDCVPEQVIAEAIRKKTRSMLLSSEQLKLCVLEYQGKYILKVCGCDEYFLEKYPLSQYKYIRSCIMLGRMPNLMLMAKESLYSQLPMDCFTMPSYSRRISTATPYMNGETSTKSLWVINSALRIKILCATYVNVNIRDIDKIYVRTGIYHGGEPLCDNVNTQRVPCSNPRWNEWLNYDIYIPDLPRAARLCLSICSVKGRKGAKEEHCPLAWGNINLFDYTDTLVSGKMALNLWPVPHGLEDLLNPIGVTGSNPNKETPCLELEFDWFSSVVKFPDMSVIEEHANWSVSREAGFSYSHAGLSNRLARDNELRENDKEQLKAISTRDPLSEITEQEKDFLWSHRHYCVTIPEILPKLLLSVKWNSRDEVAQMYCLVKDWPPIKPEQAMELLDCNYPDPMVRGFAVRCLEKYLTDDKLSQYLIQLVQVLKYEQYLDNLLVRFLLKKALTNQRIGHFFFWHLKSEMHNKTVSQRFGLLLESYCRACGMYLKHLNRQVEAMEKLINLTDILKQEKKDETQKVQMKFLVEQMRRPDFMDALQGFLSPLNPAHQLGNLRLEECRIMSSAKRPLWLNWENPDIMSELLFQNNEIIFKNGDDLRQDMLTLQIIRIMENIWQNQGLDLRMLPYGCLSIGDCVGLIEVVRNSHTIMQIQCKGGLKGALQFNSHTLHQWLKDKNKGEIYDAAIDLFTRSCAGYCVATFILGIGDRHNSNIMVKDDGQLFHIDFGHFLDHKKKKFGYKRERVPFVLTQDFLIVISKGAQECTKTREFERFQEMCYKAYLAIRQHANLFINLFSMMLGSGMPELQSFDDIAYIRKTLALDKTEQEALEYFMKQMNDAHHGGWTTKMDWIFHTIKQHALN
# Chain of PI3Kα (P27986 whole entry partner, species assumed): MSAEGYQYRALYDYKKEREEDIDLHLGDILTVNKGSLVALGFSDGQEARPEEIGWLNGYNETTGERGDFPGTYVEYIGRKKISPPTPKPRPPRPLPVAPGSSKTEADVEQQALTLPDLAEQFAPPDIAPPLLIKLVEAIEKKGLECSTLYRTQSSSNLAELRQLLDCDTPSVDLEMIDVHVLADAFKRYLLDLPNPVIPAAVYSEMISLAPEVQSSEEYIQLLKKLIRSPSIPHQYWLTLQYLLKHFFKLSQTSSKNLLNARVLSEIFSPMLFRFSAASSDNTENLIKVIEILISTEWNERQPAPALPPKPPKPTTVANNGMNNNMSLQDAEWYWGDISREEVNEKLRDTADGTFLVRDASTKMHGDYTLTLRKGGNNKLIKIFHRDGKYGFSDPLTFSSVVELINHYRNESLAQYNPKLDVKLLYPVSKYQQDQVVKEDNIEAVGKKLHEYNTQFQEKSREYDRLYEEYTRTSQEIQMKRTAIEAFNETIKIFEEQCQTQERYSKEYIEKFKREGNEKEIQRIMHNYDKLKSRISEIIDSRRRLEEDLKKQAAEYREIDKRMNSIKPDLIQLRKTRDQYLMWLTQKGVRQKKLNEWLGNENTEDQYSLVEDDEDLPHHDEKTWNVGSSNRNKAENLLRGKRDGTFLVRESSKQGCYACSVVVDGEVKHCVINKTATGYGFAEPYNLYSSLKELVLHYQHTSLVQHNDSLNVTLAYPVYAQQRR
# Chain of PI4KIIIβ (Q9UBF8 whole entry): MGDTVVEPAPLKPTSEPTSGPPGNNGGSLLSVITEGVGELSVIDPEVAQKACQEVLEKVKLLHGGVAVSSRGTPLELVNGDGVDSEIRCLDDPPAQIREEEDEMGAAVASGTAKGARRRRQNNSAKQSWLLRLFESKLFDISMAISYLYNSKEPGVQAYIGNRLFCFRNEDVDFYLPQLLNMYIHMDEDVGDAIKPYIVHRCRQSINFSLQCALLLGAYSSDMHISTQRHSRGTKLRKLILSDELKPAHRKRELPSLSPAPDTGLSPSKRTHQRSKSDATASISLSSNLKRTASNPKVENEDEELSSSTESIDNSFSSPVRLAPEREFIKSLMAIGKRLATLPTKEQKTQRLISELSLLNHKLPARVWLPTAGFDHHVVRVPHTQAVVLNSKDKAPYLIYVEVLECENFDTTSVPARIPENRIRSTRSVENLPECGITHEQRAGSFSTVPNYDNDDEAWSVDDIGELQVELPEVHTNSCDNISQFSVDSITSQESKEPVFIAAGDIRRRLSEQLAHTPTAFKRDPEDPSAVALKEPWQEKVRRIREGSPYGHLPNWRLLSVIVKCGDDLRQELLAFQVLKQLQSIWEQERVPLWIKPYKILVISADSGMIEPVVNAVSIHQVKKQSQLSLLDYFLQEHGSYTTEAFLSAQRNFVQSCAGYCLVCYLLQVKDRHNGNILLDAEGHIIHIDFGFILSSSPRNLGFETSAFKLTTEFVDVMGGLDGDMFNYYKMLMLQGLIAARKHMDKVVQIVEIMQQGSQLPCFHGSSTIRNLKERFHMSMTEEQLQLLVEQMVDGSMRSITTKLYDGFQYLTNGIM
Compound,IC50 (coxsackie B4 virus) [nM],IC50 (PI3Kβ) [nM],IC50 (PI3Kα) [nM],IC50 (coxsackie B3 virus) [nM],"fraction unbound at 4 h, 5 μM (in vitro; human)","fraction unbound at 4 h, 5 μM (in vitro; rat)","Remaining after 1 h, RLM [1] [%]","Remaining after 1 h, HLM [2] [%]",half-life at 5 μM [2] [h],IC50 (Enterovirus 68) [nM],IC50 (PI4KIIIβ) [nM],IC50 (PI4KIIIα) [nM],IC50 (Enterovirus 6) [nM],IC50 (coxsackie B2 virus) [nM],AUC(0-inf) (in vivo) [µg·h/mL],AUC(0-t) (in vivo) [µg·h/mL],AUCextrap (in vivo) [%],Cmax (in vivo) [ng/mL],MRT last (in vivo) [h],Tmax (in vivo) [h],further results
"Cc1cc(NCc2ccncc2)n2nc(C)c(-c3ccc4c(c3)c(C)nn4C)c2n1 [Example 8, 3-(1,3-dimethyl-1H-indazol-5-yl)-2,5-dimethyl-N-(pyridin-4-ylmethyl)pyrazolo[1,5-a]pyrimidin-7-amine]",< 10,1500,> 1000,< 0.1,0.027,0.024,90,86,> 2,< 0.1,0.9,1300,< 100,< 0.1,197 ± 27.1,185 ± 13.3,5.7 ± 6.1,12900 ± 700,6.8 ± 0.8,1.7 ± 0.6,half-life (in vivo): 5.4 ± 2.5 h; IC50 (coxsackie B5 virus): < 0.1 nM; IC50 (polio virus Sabin 1): < 0.1 nM; IC50 (Enterovirus 30): < 1 nM; IC50 (coxsackie B1 virus): < 0.1 nM; IC50 (Enterovirus 71): < 0.1 nM
"Cc1nc(NCc2ccncc2)n2nc(C)c(-c3ccc4c(c3)c(C)nn4C)c2n1 [Example 20, 8-(1,3-dimethyl-1H-indazol-5-yl)-2,7-dimethyl-N-(pyridin-4-ylmethyl)pyrazolo[1,5-a][1,3,5]triazin-4-amine]",< 10,> 1000,> 1000,< 1,0.906,0.031,96,78,> 2,< 10,1.2,> 1000,< 1000,< 1,115 ± 9.4,110 ± 8.3,5.1 ± 4.9,8000 ± 1500,6.8 ± 0.9,2,half-life (in vivo): 5 ± 2.3 h; IC50 (coxsackie B5 virus): < 1 nM; IC50 (polio virus Sabin 1): < 1 nM; IC50 (Enterovirus 30): < 10 nM; IC50 (coxsackie B1 virus): < 1 nM; IC50 (Enterovirus 71): < 10 nM

# From patent US11001587B2, “Substituted indazoles as phosphatidylinositol kinase inhibitors” (CUROVIR AB, priority 2017, dated 2021)
